# Results reported in publication PMC7080599 (European journal of nuclear medicine and molecular imaging, 2019).
# Target: T1, lymphokine-activated killer T-cell-originated protein kinase (TOPK) (Homo sapiens, UniProt Q96KB5)
# T1 sequence (Q96KB5 1-322): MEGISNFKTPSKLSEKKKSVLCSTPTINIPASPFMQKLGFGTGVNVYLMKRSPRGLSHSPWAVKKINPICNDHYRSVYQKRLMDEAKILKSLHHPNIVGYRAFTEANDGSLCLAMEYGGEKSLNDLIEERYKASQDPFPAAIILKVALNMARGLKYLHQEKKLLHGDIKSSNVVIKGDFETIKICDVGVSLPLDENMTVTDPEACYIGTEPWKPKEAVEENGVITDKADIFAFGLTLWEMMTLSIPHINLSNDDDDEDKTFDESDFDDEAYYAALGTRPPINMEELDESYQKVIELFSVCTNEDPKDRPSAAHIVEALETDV
# Assay: in vitro TOPK kinase assay
# Assay type: biochemical
smiles,measurement,value
"Cc1cc(O)c(-c2ccc([C@@H](C)CNc3ccc([N+](=O)[O-])c4nonc34)cc2)c2c1[nH]c(=O)c1sccc12 [TOPKi-NBD, (R)-8-hydroxy-6-methyl-9-(4-(1-((7-nitrobenzo[c][1,2,5]oxadiazol-4-yl)amino)propan-2-yl)phenyl)thieno[2,3-c]quinolin-4(5H)-one]",EC50,490 ± 170 nM
